These results are taken from patent publication US20260258033A1, “2,7-Naphthyridine Compounds as MASTL Inhibitors” (Pfizer Inc., priority 2022, published 2026).

Assay [1] deals with breast cancer cells. The settings on record: in breast cancer cells; Kang et al., Pharmaceuticals 2021; read-out: cellular IC50; cited from earlier work.
For assay [2], the target named is T1, Full-length human recombinant N-term FLAG-tagged MASTL protein (Homo sapiens, UniProt Q96GX5).
T1 sequence (Q96GX5 1-879): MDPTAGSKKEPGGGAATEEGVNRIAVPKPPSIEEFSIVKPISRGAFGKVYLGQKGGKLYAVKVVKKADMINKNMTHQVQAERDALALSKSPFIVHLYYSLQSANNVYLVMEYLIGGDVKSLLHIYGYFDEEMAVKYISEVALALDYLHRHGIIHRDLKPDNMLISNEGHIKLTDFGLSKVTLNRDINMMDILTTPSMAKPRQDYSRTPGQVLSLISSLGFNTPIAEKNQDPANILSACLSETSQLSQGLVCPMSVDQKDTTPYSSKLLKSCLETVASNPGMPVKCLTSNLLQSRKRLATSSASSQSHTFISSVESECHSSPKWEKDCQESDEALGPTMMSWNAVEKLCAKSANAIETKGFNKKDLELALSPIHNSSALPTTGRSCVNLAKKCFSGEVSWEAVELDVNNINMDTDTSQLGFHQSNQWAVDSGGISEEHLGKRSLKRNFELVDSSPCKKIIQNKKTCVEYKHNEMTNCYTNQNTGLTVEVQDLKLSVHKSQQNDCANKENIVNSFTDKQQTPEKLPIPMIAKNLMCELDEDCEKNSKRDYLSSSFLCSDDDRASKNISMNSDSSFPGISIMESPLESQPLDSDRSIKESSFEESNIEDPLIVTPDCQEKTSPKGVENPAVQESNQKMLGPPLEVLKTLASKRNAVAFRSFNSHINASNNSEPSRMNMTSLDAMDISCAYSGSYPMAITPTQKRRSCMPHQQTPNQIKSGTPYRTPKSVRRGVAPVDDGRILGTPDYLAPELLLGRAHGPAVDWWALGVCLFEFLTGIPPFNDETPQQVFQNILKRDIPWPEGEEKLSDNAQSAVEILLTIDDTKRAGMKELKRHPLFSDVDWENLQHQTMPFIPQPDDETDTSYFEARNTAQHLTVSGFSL
Description: MASTL enzyme kinase assay (CHEF PhosphoSens). As to conditions: MASTL Ki (nM), 3 nM MASTL, 1 mM ATP, room temperature; geometric mean of at least 3 independent determinations (* denotes n = 2).
Description: MASTL enzyme kinase assay was used to measure the inhibition constant (Ki) of Examples of the present invention.
Full-length human recombinant N-term FLAG-tagged MASTL protein (construct LJIC-3077G2), activated by CDK1, was produced at Pfizer Inc by expression in baculovirus-infected insect cells. All reagents were purchased from Sigma-Aldrich, Inc (St. Louis, MO), unless specified otherwise. Tween™ 20 detergent (10% Solution) was purchased from EMD Millipore Corp (Billerica, MA). The CHEF phosphoacceptor peptide substrate (AQT0693) was purchased from AssayQuant technologies, Inc (Marlboro, MA). […] The reactions contained 1 mM ATP and were initiated by the addition of enzyme. Initial reaction velocities were determined by following the fluorescence (λex=360 nm, λem=485 nm) of appropriate CHEF peptide substrate for 120 minutes in an end-point mode in a SpectraMax Paradigm Microplate Reader (Molecular Devices, LLC. San Jose, California). The extents of reactions were estimated to be <20%.

Structures are written as SMILES.

The IC50 is the midpoint of a concentration-inhibition curve. In the case of `N#CCc1ccc(Nc2nc(Nc3cc(C4CC4)[nH]n3)c3ccccc3n2)cc1` [MKI-2, 2-(4-((4-((5-cyclopropyl-1H-pyrazol-3-yl)amino)quinazolin-2-yl)amino)phenyl)acetonitrile], the 50% inhibitory concentration (IC50) in assay [1] is 143 nM.
A word on the Ki: it is the equilibrium dissociation constant of an inhibitor or competing ligand from its target. `Cn1nncc1-c1cc2cc(Nc3cc(C(C)(N)C(F)(F)F)ccn3)ncc2c(N)n1` (single isomer, unassigned) [Example 29, N^6-(4-(2-amino-1,1,1-trifluoropropan-2-yl)pyridin-2-yl)-3-(1-methyl-1H-1,2,3-triazol-5-yl)-2,7-naphthyridine-1,6-diamine]: the Ki in assay [2] came to 0.17 nM.
